Here are results for three compounds from patent US7935817B2, “Salt form and cocrystals of adefovir dipivoxil and processes for preparation thereof” (Apotex Pharmachem Inc., priority 2008, dated 2011).

The conditions of data set [1]: cited from earlier work.
For data set [2] the following is noted: pH 7; cited from earlier work.
A short description of data set [3]: stability studies: HPLC purity after storage at 40° C./75% relative humidity. It is filed as physicochemical.
The mark [4] stands for this setting: after 1 week at 40° C./75% R.H.

Values after ≈ are worked out from the molar mass of the structure shown. “Also recorded” adds a separate entry of the source. Like-named read-outs stand apart in the source and are kept apart here.

The term aqueous solubility denotes how much of the substance goes into solution per volume. Take `CC(C)(C)C(=O)OCOP(=O)(COCCn1cnc2c(N)ncnc21)OCOC(=O)C(C)(C)C` [Adefovir dipivoxil, 9-[2-[[bis[(pivaloyloxy)methoxy]phosphinyl]-methoxy]ethyl]adenine]: the aqueous solubility is 19000 µg/mL (≈ 37.9 mM) in data set [1] (pH 2.0) and 400 µg/mL (≈ 0.798 mM) in data set [1] (pH 7.2). The “octanol/aqueous phosphate buffer partition coefficient (log p)” value in data set [2] is reported as 1.91.

As to `CC(C)(C)C(=O)OCOP(=O)(COCCn1cnc2c(N)ncnc21)OCOC(=O)C(C)(C)C.NC(=O)c1cccnc1` [ADE:NIC, adefovir dipivoxil:nicotinamide], the “decrease of HPLC purity” value was “no decrease; also recorded: unchanged” in data set [3] (setting [4]) and 0.06% in data set [3] (after 4 weeks at 40° C./75% R.H.).

`CC(C)(C)C(=O)OCOP(=O)(COCCn1cnc2c(N)ncnc21)OCOC(=O)C(C)(C)C` [amorphous adefovir dipivoxil, 9-[2-[[bis[(pivaloyloxy)methoxy]phosphinyl]-methoxy]ethyl]adenine]: the “decrease of HPLC purity” value is “more than 1%” in data set [3] (setting [4]) and 2% in data set [3] (after 2 weeks at 40° C./75% R.H.). For the same compound, the “decrease of HPLC purity per week” value in data set [3] (storage at 40° C./75% relative humidity, over 2 weeks) was determined as 1 % per week.
